According to patent US20140127202A1, “ANTITUMOUR COMBINATIONS CONTAINING A VEGF INHIBITING AGENT AND IRINOTECAN” (Aventis Pharma S.A., priority 2007, published 2014):

Tests used:
HCT116 human tumor = assay: Antitumor activity and toxicity in mice grafted subcutaneously with HCT116 human tumor fragments; format: in vivo
Experimental: (§1) This effectiveness can be quantified, for example, by the log10 cell kill, which is determined according to the following equation:
(§2) log10 cell kill=T-C (days)/3.34×Td
(§3) in which T-C represents the delay in growth of the cells, which is the average time, in days, for the tumors of the treated group (T) and the tumors of the control group (C) to have reached a predetermined value (1 g for example), and Td represents the time, in days, necessary for the volume of the tumor to double in the control animals [T. H. Corbett et al., Cancer, 40, 2660.2680 (1977); F. M. Schabel et al., Cancer Drug Development, Part B, Methods in Cancer Research, 17, 3-51, New York, Academic Press Inc. (1979)]. A product is considered to be active if log10 cell kill is greater than or equal to 0.7. A product is considered to be very active if log10 cell kill is greater than 2.8.
(§4) The combination, used at its own maximum tolerated dose, in which each of the constituents is present at a dose generally less than or equal to its maximum tolerated dose, will show therapeutic synergy when the log10 cell kill is greater than the value of the log10 cell kill of the best constituent when it is administered alone, and in particular has a superiority of at least one log cell kill.
(§5) The effectiveness of the combinations on solid tumors can be determined experimentally in the following way:
(§6) The animals subjected to the experiment, generally mice, are grafted bilaterally, subcutaneously, with 30 to 60 mg of an HCT116 human tumor fragment (Brattain, M. G., Fine, W. D., Khaled, F. M., Thompson, J. and Brattain, D. E., Heterogeneity of malignant cells from a human colonic carcinoma. Cancer Res., 1981, 41, 1751-1756) on day 0. The animals bearing the tumors are randomized before being subjected to the various treatments and controls. In the case of treatment of tumors of the present invention, the tumors were allowed to develop to a size of between 48 and 294 mg, which made it possible to have a median tumor per group of between 129 and 162 mg. […] Animals bearing tumors were also subjected to the same treatments with the excipient alone in order to be able to dissociate the toxic effect of the excipient from the actual effect of the chemotherapy on the tumor. The chemotherapy was begun on day 12 after the tumor graft. The VEGF Trap injections were given subcutaneously simultaneously with the irinotecan injections, which themselves were given intravenously, according to a daily double injection. These injections were carried out on days 12, 15 and 18 after implantation of the tumor. The various groups of animals are weighed three to four times per week until the maximum weight loss is reached, and then the groups are weighed at least once a week until the end of the trial.
(§7) The tumors are measured two or three times a week until the tumor reaches approximately 2 g or until the death of the animal if the latter occurs before the tumor reaches 2 g. The animals are autopsied at the time of sacrifice.
(§8) The antitumor activity is determined according to the various parameters recorded.
(§9) Vials of 1 cm^3 containing 25 mg of VEGF Trap which are diluted in a buffer of 5 mM phosphate, 5 mM sodium citrate, 100 mM sodium chloride, polysorbate 20 and 20% sucrose are prepared according to the usual technique, for subcutaneous administration. The administration volume per mouse is 0.1 ml. The VEGF Trap is administered once a day, on days 12, 15 and 18 after implantation of the tumor.
(§10) 0.3 ml per mouse is prepared, according to the usual technique, for intravenous administration, from a commercially available solution at 20 mg/ml of irinotecan to be diluted with 5% dextrose in water.
(§11) These solutions are administered simultaneously, after a suitable dilution.
(§12) The treatment with irinotecan is repeated twice a day, with a 4-hour interval, on days 12, 15 and 18 after implantation of the tumor.
(§13) Tumor doubling time=3.2 days.
(§14) Abbreviations used: (T-C) delay in growth of the tumor, Ick=log cell kill.

[1] = as above; format: in vivo; details: mouse, in vivo, iv; irinotecan alone, i.v. twice a day on days 12, 15, 18; read-out: maximum tolerated dose, total injected dose
Experimental: as §1, §2, §3, §4, §5, §6, §7, §8, §9, §10, §11, §12, §13, §14

VEGF-B = VEGF-B (Homo sapiens, UniProt P49765); details: cited from earlier work
Sequence of VEGF-B (P49765 22-207, species assumed): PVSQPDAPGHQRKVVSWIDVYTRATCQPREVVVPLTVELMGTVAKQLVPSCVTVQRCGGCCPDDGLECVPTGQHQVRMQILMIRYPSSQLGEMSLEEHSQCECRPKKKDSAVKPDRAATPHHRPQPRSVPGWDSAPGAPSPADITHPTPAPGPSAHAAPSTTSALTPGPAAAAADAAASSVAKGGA

VEGF-A = biological target: T1, VEGF-A (Homo sapiens, UniProt P15692); details: in comparison with Avastin (bevacizumab); cited from earlier work
T1 sequence (P15692 207-395 limits assumed): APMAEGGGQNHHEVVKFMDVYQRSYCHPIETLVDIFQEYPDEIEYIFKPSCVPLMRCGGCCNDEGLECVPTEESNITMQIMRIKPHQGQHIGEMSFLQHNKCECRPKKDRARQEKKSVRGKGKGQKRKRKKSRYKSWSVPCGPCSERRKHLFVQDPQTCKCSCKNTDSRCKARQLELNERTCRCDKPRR

[2] = biological target: PIGF (placental growth factor) (Homo sapiens, UniProt P49763); details: cited from earlier work
Sequence of PIGF (placental growth factor) (P49763 19-221): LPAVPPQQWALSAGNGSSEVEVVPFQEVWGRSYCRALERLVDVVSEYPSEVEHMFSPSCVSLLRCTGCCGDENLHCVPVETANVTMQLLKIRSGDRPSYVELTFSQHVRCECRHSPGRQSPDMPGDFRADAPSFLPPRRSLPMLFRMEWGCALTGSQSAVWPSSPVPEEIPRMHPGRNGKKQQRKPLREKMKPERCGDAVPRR

[3] = CPT-11 alone, 12.5 mg/kg per injection i.v., 2x/d days 12, 15, 18, total 75.0 mg/kg, group 9
[4] = CPT-11 alone, 20.2 mg/kg per injection i.v., 2x/d days 12, 15, 18, total 121.2 mg/kg, group 8
[5] = CPT-11 alone, 32.5 mg/kg per injection i.v., 2x/d days 12, 15, 18, total 195.0 mg/kg, group 7
[6] = VEGF Trap alone, 2.5 mg/kg s.c. days 12, 15, 18, total 7.5 mg/kg, group 5
[7] = VEGF Trap alone, 10.0 mg/kg s.c. days 12, 15, 18, total 30.0 mg/kg, group 4
[8] = VEGF Trap alone, 25.0 mg/kg s.c. days 12, 15, 18, total 75.0 mg/kg, group 3
[9] = VEGF Trap alone, 40.0 mg/kg s.c. days 12, 15, 18, total 120.0 mg/kg, group 2

CCc1c2c(nc3ccc(OC(=O)N4CCC(N5CCCCC5)CC4)cc13)-c1cc3c(c(=O)n1C2)COC(=O)[C@]3(O)CC [CPT-11, irinotecan]
Average time for the tumor to reach 750 mg (HCT116 human tumor; [3]): 37.6 days | Comments (activity) (HCT116 human tumor; [3]): active | Comments (dose level) (HCT116 human tumor; [3]): HNTD | Death due to the product, with day of death (HCT116 human tumor; [3]): 0/8 | Log cell kill (HCT116 human tumor; [3]): 1.8 | Survivors without tumor at day 144 (HCT116 human tumor; [3]): 0/8 | T-C (HCT116 human tumor; [3]): 19.1 days | Weight loss of the mouse (date of low-point) (HCT116 human tumor; CPT-11 alone, 12.5 mg/kg per injection i.v., 2x/d days 12, 15, 18, total 75.0 mg/kg, group 9, low-point day 21): −15.9% | Comments (HCT116 human tumor; [4]): Toxic | Death due to the product, with day of death (HCT116 human tumor; [4]): 0/8 | Comments (HCT116 human tumor; CPT-11 alone, 20.2 mg/kg per injection i.v., 2x/d days 12, 15, 18, total 121.2 mg/kg, group 8, listed as irinotecan): Toxicity was observed | Weight loss of the mouse (date of low-point) (HCT116 human tumor; CPT-11 alone, 20.2 mg/kg per injection i.v., 2x/d days 12, 15, 18, total 121.2 mg/kg, group 8, low-point day 19): −21.9% | Weight loss of the mouse (date of low-point) (HCT116 human tumor; CPT-11 alone, 20.2 mg/kg per injection i.v., 2x/d days 12, 15, 18, total 121.2 mg/kg, group 8, low-point day 19, listed as irinotecan): greater than 20% | Comments (HCT116 human tumor; [5]): Toxic | Death due to the product, with day of death (HCT116 human tumor; [5]): 0/7 | Comments (HCT116 human tumor; CPT-11 alone, 32.5 mg/kg per injection i.v., 2x/d days 12, 15, 18, total 195.0 mg/kg, group 7, listed as irinotecan): Toxicity was observed | Weight loss of the mouse (date of low-point) (HCT116 human tumor; CPT-11 alone, 32.5 mg/kg per injection i.v., 2x/d days 12, 15, 18, total 195.0 mg/kg, group 7, low-point day 19): −23.1% | Weight loss of the mouse (date of low-point) (HCT116 human tumor; CPT-11 alone, 32.5 mg/kg per injection i.v., 2x/d days 12, 15, 18, total 195.0 mg/kg, group 7, low-point day 19, listed as irinotecan): greater than 20% | Death due to the product, with day of death (HCT116 human tumor; CPT-11 alone, 52.4 mg/kg per injection i.v., 2x/d (4 h apart) days 12, 15, 18, total 314.4 mg/kg, group 6, day of death 23): 1/8 (23) | Death due to the product, with day of death (HCT116 human tumor; CPT-11 alone, 52.4 mg/kg per injection i.v., 2x/d (4 h apart) days 12, 15, 18, total 314.4 mg/kg, group 6, day of death 23, listed as irinotecan): a death | Comments (HCT116 human tumor; CPT-11 alone, 52.4 mg/kg per injection i.v., 2x/d days 12, 15, 18, total 314.4 mg/kg, group 6): Toxic | Comments (HCT116 human tumor; CPT-11 alone, 52.4 mg/kg per injection i.v., 2x/d days 12, 15, 18, total 314.4 mg/kg, group 6, listed as irinotecan): Toxicity was observed | Weight loss of the mouse (date of low-point) (HCT116 human tumor; CPT-11 alone, 52.4 mg/kg per injection i.v., 2x/d days 12, 15, 18, total 314.4 mg/kg, group 6, low-point day 21): −27.0% | maximum tolerated dose (HCT116 human tumor; irinotecan alone, i.v. twice a day on days 12, 15, 18): 12.5 mg/kg/inj | MTD [1]: 75 mg/kg

VEGF Trap: fusion protein: D2 Ig domain of VEGFR1 fused to D3 Ig domain of VEGFR2, fused to the Fc domain of IgG1
binding to VEGF-B (selectivity profile) (VEGF-B): also binds | Average time for the tumor to reach 750 mg (HCT116 human tumor; [6]): 20.2 days | Comments (activity) (HCT116 human tumor; [6]): inactive | Death due to the product, with day of death (HCT116 human tumor; [6]): 0/8 | Log cell kill (HCT116 human tumor; [6]): 0.2 | Survivors without tumor at day 144 (HCT116 human tumor; [6]): 0/8 | T-C (HCT116 human tumor; [6]): 1.7 days | Weight loss of the mouse (date of low-point) (HCT116 human tumor; VEGF Trap alone, 2.5 mg/kg s.c. days 12, 15, 18, total 7.5 mg/kg, group 5, low-point day 19): −8.3 (19) % | Average time for the tumor to reach 750 mg (HCT116 human tumor; [7]): 32.0 days | Comments (activity) (HCT116 human tumor; [7]): active | Death due to the product, with day of death (HCT116 human tumor; [7]): 0/8 | Log cell kill (HCT116 human tumor; [7]): 1.3 | Survivors without tumor at day 144 (HCT116 human tumor; [7]): 1/8 | T-C (HCT116 human tumor; [7]): 13.5 days | Weight loss of the mouse (date of low-point) (HCT116 human tumor; VEGF Trap alone, 10.0 mg/kg s.c. days 12, 15, 18, total 30.0 mg/kg, group 4, low-point day 19): −5.0 (19) % | Average time for the tumor to reach 750 mg (HCT116 human tumor; [8]): 36.8 days | Comments (activity) (HCT116 human tumor; [8]): active | Death due to the product, with day of death (HCT116 human tumor; [8]): 0/8 | Log cell kill (HCT116 human tumor; [8]): 1.7 | Survivors without tumor at day 144 (HCT116 human tumor; [8]): 0/8 | T-C (HCT116 human tumor; [8]): 18.3 days | Weight loss of the mouse (date of low-point) (HCT116 human tumor; VEGF Trap alone, 25.0 mg/kg s.c. days 12, 15, 18, total 75.0 mg/kg, group 3, low-point day 13): −2.2 (13) % | Average time for the tumor to reach 750 mg (HCT116 human tumor; [9]): 36.8 days | Death due to the product, with day of death (HCT116 human tumor; [9]): 0/8 | Log cell kill (HCT116 human tumor; [9]): 1.7 | Survivors without tumor at day 144 (HCT116 human tumor; [9]): 0/8 | T-C (HCT116 human tumor; [9]): 18.3 days | Comments (activity) (HCT116 human tumor; VEGF Trap alone, 40.0 mg/kg s.c. days 12, 15, 18, total 120.0 mg/kg, group 2 (HDT)): active | Weight loss of the mouse (date of low-point) (HCT116 human tumor; VEGF Trap alone, 40.0 mg/kg s.c. days 12, 15, 18, total 120.0 mg/kg, group 2, low-point day 13): −3.1 (13) % | tolerability (HCT116 human tumor; VEGF Trap alone, all the dosages tested (2.5 to 40 mg/kg/administration s.c.)): well-tolerated | affinity for VEGF-A compared with Avastin (VEGF-A): much higher affinity | binding to PIGF (selectivity profile) [2]: also binds
